# Data reported in publication PMC8222254, “Self-assembly of an anion receptor with metal-dependent kinase inhibition and potent in vitro anti-cancer properties” (Nature Communications, 2021).
# Where “and” joins values, the source holds several entries; their conditions need not be identical. Equal entries are not always repeated. Where two headings read alike, the source gives them in different places.
# How the values were obtained:
# Format in all cases: cell-based, human
# [1] = test system: GBM1 glioblastoma cancer stem cell model; test: Chemosensitivity, 96 h continuous exposure, MTT assay; settings: for IC50: GBM1, 96 h, MTT; for Selectivity Index using the NPI non-cancer cell line: IC50 NP1 / IC50 GBM1; for SI (ARPE19): mean IC50 ARPE-19 / mean IC50 GBM1; for SI (MCF10A): mean IC50 MCF10A / mean IC50 GBM1; for SI (NPI): mean IC50 NP1 / mean IC50 GBM1;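 as to SI (NPI): adult human brain neural progenitor non-cancer cells from an epilepsy surgery patient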;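 as to Selectivity Index using the NPI non-cancer cell line: adult human brain neural progenitor non-cancer cells from an epilepsy surgery patient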
# Procedure, shortened: (§1)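 IC50 is the concentration giving 50% growth reduction, derived from dose-response curves of MTT absorbance at 540 nm. Before dosing, lines were plated at 2 × 10^3 cells/well, GBM1 stem-like cells at 3 × 10^3/well, overnight at 37 °C; compound exposure lasted 96 h without interruption, vehicle 0.2% DMSO.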
# [2] = test system: NP1 adult brain neural progenitor cells; test: as above
# Procedure, shortened: as §1
# HCT116 = test: Metabolic flux analysis (Cell Energy Phenotype Assay, OCR/ECAR); set-up: Mean Baseline EACR / Baseline EACR / Mean Stressed OCR / Stressed OCR / Mean Stressed EACR / Stressed EACR / Mean Baseline OCR / Baseline OCR: unit not given here; settings: for Baseline EACR / Baseline OCR / Stressed EACR / Stressed OCR / Mean Baseline EACR / Mean Baseline OCR / Mean Stressed EACR / Mean Stressed OCR: HCT116 cells
# Procedure: ARPE-19 and HCT116 cells were seeded in 8-well XFp plates (Agilent) 48 h prior to metabolic flux analyses using the Agilent XFp extracellular flux analyser. Cell seeding densities were 2500 cells/well for ARPE-19 cells and 7500 cells/well for HCT116 cells in order to achieve equivalent cell confluency (~70% confluency and in log phase growth) at the time of analyses. Cells were treated with 25 μM of [L2Zn3]^6+ or solvent control (0.2% DMSO) for 1 h or 20 h before metabolic flux analyses using the Cell Energy Phenotype Assay (Agilent) in accordance with the manufacturer’s instructions. For determination of maximal respiratory and glycolytic rates (metabolic reserve) following real-time quantification of basal respiratory and glycolytic rates, a ‘metabolic stress mix’ of 1 µM oligomycin and FCCP (0.5 µM for ARPE-19, 0.25 µM for HCT116) was injected into the media.
# [3] = individual run, read-out: IC50 values for each replicate
# [4] = mean of at least 3 independent experiments, read-out: Mean IC50
# [5] = NP1, 96 h, MTT, individual run, read-out: IC50 values for each replicate
# [6] = NP1, 96 h, MTT, mean of at least 3 independent experiments, read-out: Mean IC50
# [7] = NP1 non-cancer, read-out: Mean IC50 values
# [8] = 1h exposure, mean of 3 runs (Fig. 9c)
# [9] = 20h exposure, mean of 3 runs (Fig. 9d)
smiles,measurement,setting,value
[Cu+2].[Cu+2].[Cu+2].c1ccc(-c2csc(NCCN(CCNc3nc(-c4ccccn4)cs3)CCNc3nc(-c4ccccn4)cs3)n2)nc1.c1ccc(-c2csc(NCCN(CCNc3nc(-c4ccccn4)cs3)CCNc3nc(-c4ccccn4)cs3)n2)nc1 [[L2Cu3]6+],IC50,[1]; [3],5.37 µM and 4.48 µM and 5.08 µM
same,IC50,"[1]; mean of at least 3 independent experiments, listed as [L2Cu3]^6+, read-out: Mean IC50",> 1 µM
same,IC50,[1]; [4],4.97 µM
same,Selectivity Index using the NPI non-cancer cell line,[1],8.67
same,SI (ARPE19),[1],10.59
same,SI (MCF10A),[1],9.71
same,SI (NPI),[1],8.67
same,IC50,[2]; [5],39.3 µM and 45.1 µM and 44.8 µM
same,IC50,[2]; [6],43.1 µM
same,IC50,[2]; [7],43.1 µM
CC(=O)[O-].CC(=O)[O-].CC(=O)[O-].CC(=O)[O-].CC(=O)[O-].CC(=O)[O-].[Zn+2].[Zn+2].[Zn+2].c1ccc(-c2csc(NCCN(CCNc3nc(-c4ccccn4)cs3)CCNc3nc(-c4ccccn4)cs3)n2)nc1.c1ccc(-c2csc(NCCN(CCNc3nc(-c4ccccn4)cs3)CCNc3nc(-c4ccccn4)cs3)n2)nc1 [[L2Zn3]6+],IC50,[1]; [3],3.23 µM and 4.44 µM and 4.32 µM
same,IC50,"[1]; mean of at least 3 independent experiments, listed as [L2Zn3]^6+, read-out: Mean IC50",> 1 µM
same,IC50,[1]; [4],4 µM
same,Selectivity Index using the NPI non-cancer cell line,[1],1.95
same,SI (ARPE19),[1],39.31
same,SI (MCF10A),[1],40.41
same,SI (NPI),[1],1.95
same,IC50,[2]; [5],5.77 µM and 8.9 µM and 8.86 µM
same,IC50,[2]; [6],7.78 µM
same,IC50,[2]; [7],7.78 µM
same,glycolysis (ECAR),"HCT116; HCT116, 25 μM, 1 h",modest selective decrease
same,mitochondrial respiration and glycolysis,"HCT116; HCT116, 25 μM, 20 h",substantially impaired
same,Baseline EACR,"HCT116; 1h exposure, Run 1 (Fig. 9c)",36.12
same,Baseline OCR,"HCT116; 1h exposure, Run 1 (Fig. 9c)",98.34
same,Stressed EACR,"HCT116; 1h exposure, Run 1 (Fig. 9c)",50.32
same,Stressed OCR,"HCT116; 1h exposure, Run 1 (Fig. 9c)",147.22
same,Baseline EACR,"HCT116; 1h exposure, Run 2 (Fig. 9c)",27.29
same,Baseline OCR,"HCT116; 1h exposure, Run 2 (Fig. 9c)",76.52
same,Stressed EACR,"HCT116; 1h exposure, Run 2 (Fig. 9c)",37.11
same,Stressed OCR,"HCT116; 1h exposure, Run 2 (Fig. 9c)",109.94
same,Baseline EACR,"HCT116; 1h exposure, Run 3 (Fig. 9c)",34.53
same,Baseline OCR,"HCT116; 1h exposure, Run 3 (Fig. 9c)",90.56
same,Stressed EACR,"HCT116; 1h exposure, Run 3 (Fig. 9c)",47.29
same,Stressed OCR,"HCT116; 1h exposure, Run 3 (Fig. 9c)",132.49
same,Mean Baseline EACR,HCT116; [8],32.65
same,Mean Baseline OCR,HCT116; [8],88.47
same,Mean Stressed EACR,HCT116; [8],44.91
same,Mean Stressed OCR,HCT116; [8],129.88
same,Baseline EACR,"HCT116; 20h exposure, Run 1 (Fig. 9d)",24.12
same,Baseline OCR,"HCT116; 20h exposure, Run 1 (Fig. 9d)",21.60
same,Stressed EACR,"HCT116; 20h exposure, Run 1 (Fig. 9d)",29.60
same,Stressed OCR,"HCT116; 20h exposure, Run 1 (Fig. 9d)",20.79
same,Baseline EACR,"HCT116; 20h exposure, Run 2 (Fig. 9d)",26.59
same,Baseline OCR,"HCT116; 20h exposure, Run 2 (Fig. 9d)",20.38
same,Stressed EACR,"HCT116; 20h exposure, Run 2 (Fig. 9d)",33.07
same,Stressed OCR,"HCT116; 20h exposure, Run 2 (Fig. 9d)",21.88
same,Baseline EACR,"HCT116; 20h exposure, Run 3 (Fig. 9d)",25.54
same,Baseline OCR,"HCT116; 20h exposure, Run 3 (Fig. 9d)",19.42
same,Stressed EACR,"HCT116; 20h exposure, Run 3 (Fig. 9d)",31.03
same,Stressed OCR,"HCT116; 20h exposure, Run 3 (Fig. 9d)",19.19
same,Mean Baseline EACR,HCT116; [9],25.41
same,Mean Baseline OCR,HCT116; [9],20.47
same,Mean Stressed EACR,HCT116; [9],31.23
same,Mean Stressed OCR,HCT116; [9],20.62
